{"source": "patent US6881414B2", "about": "“Mild cosmetic composition with stabilized retinoids” (Unilever Home & Personal Care USA, division of Conopco, Inc., priority 2000, dated 2005)", "key": {"LRAT": {"biological_target": "T1, LRAT (Bos taurus, UniProt Q9BGL2)", "T1 construct": "followed by approximately 15 μg of RPE microsomal protein; tissue W. L. Lawson Co; host or cells: bovine retinal pigment epithelium microsomes", "T1 sequence (Q9BGL2 1-230)": "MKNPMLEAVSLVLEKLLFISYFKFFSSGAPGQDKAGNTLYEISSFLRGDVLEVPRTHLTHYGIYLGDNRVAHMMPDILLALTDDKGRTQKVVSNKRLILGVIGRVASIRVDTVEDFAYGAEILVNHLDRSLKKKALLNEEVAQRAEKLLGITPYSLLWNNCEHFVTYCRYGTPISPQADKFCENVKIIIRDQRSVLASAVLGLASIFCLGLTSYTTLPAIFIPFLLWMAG", "assay": "LRAT activity assay, RPE microsomes (to identify B1)", "format": "biochemical, bovine", "conditions": "for % Inhibition LRAT (10 μm): compound 10 μm; for % Inhibition LRAT (100 μm): compound 100 μm", "quoted_text": "50 frozen hemisected bovine eyecups, with the retina and aqueous humor removed were obtained from W. L. Lawson Co., Lincoln, Nebr., U.S.A. The eyes were thawed overnight and the colored iridescent membrane was removed by peeling with forceps. […] The cell suspension was added to the iridescent membranes and the suspension was stirred for several minutes in a beaker with a Teflon stir bar. The suspension was filtered through a coarse filter (Spectra/Por 925 μl pore size polyethylene mesh) to remove large particles, and the resulting darkly colored suspension was homogenized using a Glas-Col with a motor driven Teflon homogenizer. The cell homogenate was centrifuged for 30 min. at 20,000 g (Sorvaal model RC-5B centrifuge with an SS34 rotor in 2.5×10 cm tubes at 14,000 RPM). The resulting supernatant was subjected to further centrifugation for 60 min. at 150,000 g (Beckman model L80 Ultracentrifuge with an SW50.1 rotor in 13×51 mm tubes at 40,000 RPM). The resulting pellets were dispersed into ˜5 mL 0.1M PO4/5 mM DTT, pH 7 buffer using a Heat Systems Ultrasonics, Inc. model W185D Sonifier Cell Disruptor, and the resulting microsomal dispersion was aliquoted into small tubes and stored at −70° C. The protein concentrations of the microsomes were determined using the BioRad Dye binding assay, using BSA as a standard.\n2.3 Assay for ARAT and LRAT Activity (To Identify B1)\nThe following buffer was prepared and stored at 4° C.: 0.1M PO4/5 mM dithiothreitol, pH 7.0 (PO4/DTT). On the day of the assay, add 2 mg BSA per mL of buffer to give a PO4/DTT/BSA working buffer. 1 mM retinol substrate was prepared in acetonitrile and stored in amber bottles under nitrogen gas at −20° C. Solutions of 4 mM Palmitoyl-CoA in working buffer (stored in aliquots) and 4 mM dilauroyl phosphatidyl choline in ethanol were prepared and stored at −20° C. Inhibitors were prepared as 10 mM stock solutions in water, ethanol, acetonitrile or DMSO. The quench solution was prepared using pure ethanol containing 50 μg/mL butylated hydroxytoluene (BHT), and a hexane solution containing 50 μg/mL BHT was used for the extractions.\nIncubate for 5 min. at 37° C. to equilibrate the reaction temperature and then add 5 μl 1 mM retinol. Cap the vials, vortex for 5 seconds and incubate for 30-90 minutes at 37° C. Quench the reaction by adding 0.5 mL ethanol/BHT. Extract the retinoids by adding 3 mL hexane/BHT, vortex the tubes for several seconds several times and centrifuge the tubes at low speed for 5 min. to quickly separate the layers. Remove the upper hexane layer into a clean vial, and re-extract the aqueous layer with another 3 mL hexane/BHT, as described above. Combine the hexane layers and evaporate the hexane by drying at 37° C. under a stream of nitrogen gas on a heated aluminum block. Store the dried residue at −20° C. until HPLC analysis. Quantitate the amount of retinyl palmitate and retinyl laurate for ARAT and LRAT activity, respectively, by integration of the HPLC signal as described below.\nNote that the incubation solution contains 40 μM acyl donor, 100 μM or less inhibitor, 10 μM retinol, approximately 30 μg/mL microsomal protein, and nearly 0.1M PO4, pH 7/5 mM DTT/2 mg/mL BSA. […]\nSamples for retinoid quantitation by HPLC were prepared by dissolving the residue in each vial with 100 μL of methanol. […] Aliquots of 60 μL were injected immediately and analyzed for retinoid content.\nTwo HPLC protocols were used for retinoid analysis. […] The column eluate was monitored from 300 nm to 400 nm."}, "TGase I in keratinocytes": {"system": "TGase I in keratinocytes", "assay": "Transglutaminase (TGase I) ELISA assay in cultured keratinocytes", "format": "cell-based", "conditions": "added effect of booster+retinol induced TGase inhibition over retinol alone", "quoted_text": "An ELISA based TGase I assay, using a TGase I antibody, was used to assess the state of differentiation of the cultured keratinocytes in the examples that follow.\nKeratinocytes (cultured as described above) were plated in 96 well plates at a density of 4,000-5,000 cells per well in 200 μl media. After incubation for two to three days, or until cells are ˜50% confluent, the media was changed to media containing test compounds (five replicates per test). The cells were cultured for a further 96 hours after which time the media was aspirated and the plates stored at −70° C. Plates were removed from the freezer, and the cells were washed twice with 200 μl of 1×PBS. The cells were incubated for one hour at room temperature (RIT) with TBS/5% BSA (wash buffer, bovine serum albumin). Next the TGase primary antibody was added: 50 μl of monoclonal anti-Tgase I Ab B.C. diluted 1:2000 in wash buffer. The primary antibody was incubated for 2 hours at 37° C. and then rinsed 6× with wash buffer. Cells were then incubated with 50 μl of secondary antibody (Fab fragment, peroxidase conjugated anti-mouse IgG obtaining from Amersham) diluted 1:4,000 in wash buffer for two hours at 37° C., then rinsed three times with wash buffer. Following the rinse with washing buffer, the cells were rinsed 3× with PBS. […] TGase levels were determined and expressed as percentage control."}, "CRABPII": {"biological_target": "T2, CRABPII (Homo sapiens, UniProt P29373)", "T2 construct": "made in house; host or cells: E. coli BLR(DE3)pLysS", "T2 sequence (P29373 1-138)": "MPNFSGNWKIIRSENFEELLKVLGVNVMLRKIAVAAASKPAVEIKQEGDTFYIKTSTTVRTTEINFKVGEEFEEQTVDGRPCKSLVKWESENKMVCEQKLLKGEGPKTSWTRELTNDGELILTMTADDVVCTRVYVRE", "assay": "CRABPII antagonist radioactive binding assay (to identify B4)", "conditions": "competition with radioactive all trans retinoic acid; ligand excess ratio not given", "source_text": "2.6 Assay for CRABPII Antagonists (To Identify B4)\n2.6.1. Synthesis of CRABPII\nThe gene CRABPII was cloned in pET 29a-c(+) plasmid (Novagen). The cloned gene was under control of strong bacteriophage T7 transcription and translation signals. The source of T7 polymerase was provided by the host cell E.coli BLR(DE3)pLysS (Novagen). The latter has a chromosomal copy of T7 polymerase under lacUV5 control, induced by the presence of IPTG.\nThe plasmid was transferred into E. coli BLR(DE3)pLysS cells by transformation according to the manufacturer protocol (Novagen).\nAn overnight culture of the transformed cells was diluted 1:100 into 2×YT containing 50 μg/mL kanamycin and 25 μg/mL chloramphenicol. The cells grew while shaking at 37° C. until the OD at 600 nm reached 0.6-0.8. Then IPTG was added to a final concentration of 1 mM and the culture was incubated for an additional two hours. The cells were harvested by centrifugation at 5000 g for 10 minutes at room temperature. The pellet was stored at −20° C.\nPurification was performed according to the method described in A. W. Norris & E. Li, Generation and characterization of cellular retinoic acid-binding proteins from Escherichia coli expression systems”. Methods Enzymol. 282:3-13 (1997).\nThe frozen pellet was thawed at RT and resuspended in 1-2 pellet volumes of freshly prepared lysis buffer (50 mM Tris-HCl, pH 8, 10% (w/v) sucrose, 1 mM EDTA, 0.05% (w/v) sodium azide, 0.5 mM DTT, 10 mM MnCl2, 2.5 mM phenylmethylsulfonyl fluoride, 2.5 mM benzamidine, 6 μg/mL DNase). The lysate was incubated for 30 min at room temperature. Further lysis was accomplished by sonication (six 30-sec bursts at […] alternated with five 30-sec delay on ice). […]\nThe supernatant from step a. was loaded onto a 2.5×100 cm column of sephacryl S-300 (Pharmacia) at room temperature. […] Collected 2-mL fractions were checked for ultraviolet absorbance at 280 nm. […]\nFor the competitive assay, another ligand in excess (6670:1, 670:1 or 70:1) was added to the mix. […] The radioactivity of the filtrate was measured by scintillation counter."}, "[1]": {"assay": "Retinoid solubility in oil (UV spectroscopy of filtrate)", "format": "physicochemical", "procedure": "As an illustration, solubility of retinol crystals in varying oils is as follows:\nRetinoid solubility in oil is determined by the following procedure. A known weight of pure retinoid in excess of the expected solubility limit in the oil is added in an oil. Methanol is added to the mixture to dissolve all retinoid crystals. Nitrogen sparging is used to ensure all methanol was evaporated from the oil. Retinoid is allowed to recrystallize overnight. The sample is filtered through a 0.45 micron filter. Known dilutions of the filtrate in isopropanol are measured by UV spectroscopy at an appropriate wavelength (325 nm for retinol) and the concentration of retinoid determined against calibration standards of retinoid in isopropanol."}}}
{"smiles": "CC(/C=C/C=C(\\C)C(=O)O)=C\\C=C\\C=C(C)\\C=C\\C=C(/C)C(=O)O", "note": "[Crocetin]", "values": [{"measurement": "% Inhibition LRAT (10 μm)", "setting": "LRAT", "result": 0, "unit": "%"}]}
{"smiles": "CN1CCN(C)C1=O", "note": "[Dimethyl Imidazolidinone]", "values": [{"measurement": "% Inhibition Overall TG (- ROH/RE)", "setting": "TGase I in keratinocytes", "result": 22, "unit": "%"}]}
{"smiles": "CCCCCCCC/C=C/CCCCCCCC(=O)O", "note": "[Elaidic Acid]", "values": [{"measurement": "% Inhibition CRABPII", "setting": "CRABPII", "result": ">50", "unit": "%"}]}
{"smiles": "CC(C)=CCCC(C)=CCCC(C)=CCO", "note": "[Farnesol]", "values": [{"measurement": "% Inhibition LRAT (10 μm)", "setting": "LRAT", "result": 10, "unit": "% +/− 7"}]}
{"smiles": "CC(C)=CCC/C(C)=C/CC/C(C)=C/CC/C(C)=C/CO", "note": "[Geranyl Geraniol]", "values": [{"measurement": "% Inhibition LRAT (10 μm)", "setting": "LRAT", "result": 16, "unit": "% +/− 9"}]}
{"smiles": "O=C(O)CCCCCCCCCCCCCCC(=O)O", "note": "[Hexadecanedioic Acid]", "values": [{"measurement": "% Inhibition CRABPII", "setting": "CRABPII", "result": ">50", "unit": "%"}]}
{"smiles": "CC(C)CCCCCCCCCCCCCCC(=O)O", "note": "[Isostearic Acid]", "values": [{"measurement": "% Inhibition CRABPII", "setting": "CRABPII", "result": ">50", "unit": "%"}]}
{"smiles": "C=CC(C)(O)CCC=C(C)C", "note": "(centres unmarked) [Linatool]", "values": [{"measurement": "% Inhibition LRAT (100 μm)", "setting": "LRAT", "result": 0, "unit": "%"}]}
{"smiles": "CCCCC/C=C\\C/C=C\\CCCCCCCC(=O)N(CCO)CCO", "note": "[Linoleamide-DEA, Linoleoyl Diethanolamide]", "values": [{"measurement": "% Inhibition Overall TG (- ROH/RE)", "setting": "TGase I in keratinocytes", "result": 59, "unit": "%"}]}
{"smiles": "O=C1C[C@@H](c2ccc(O)cc2)Oc2cc(O)cc(O)c21", "note": "[Naringenin]", "values": [{"measurement": "% Inhibition LRAT (100 μm)", "setting": "LRAT", "result": 14, "unit": "%"}]}
{"smiles": "CC1=C(/C=C/C(C)=C/C=C/C(C)=C/CO)C(C)(C)CCC1", "note": "[retinol]", "values": [{"measurement": "Solubility of retinol crystals in oil", "setting": "[1]; in C12-15 Alkyl benzoate", "result": 85, "unit": "wt %"}, {"measurement": "Solubility of retinol crystals in oil", "setting": "[1]; in Cetiol OE", "result": 80, "unit": "wt %"}, {"measurement": "Solubility of retinol crystals in oil", "setting": "[1]; in Cyclomethicone", "result": 2.7, "unit": "wt %"}, {"measurement": "Solubility of retinol crystals in oil", "setting": "[1]; in Dimethicone", "result": 0.49, "unit": "wt %"}, {"measurement": "Solubility of retinol crystals in oil", "setting": "[1]; in Isostearyl palmitate", "result": 44, "unit": "wt %"}, {"measurement": "Solubility of retinol crystals in oil", "setting": "[1]; in Mineral oil", "result": 34.2, "unit": "wt %"}, {"measurement": "Solubility of retinol crystals in oil", "setting": "[1]; in Triolein/Squalene (6:1)", "result": 56.4, "unit": "wt %"}]}
